# Measured values reported in patent publication US20260226047A1, “BENZIMIDAZOLE AND AZA-BENZIMIDAZOLE BASED IL-17A MODULATORS AND USES THEREOF” (DICE ALPHA, INC., priority 2023, published 2026).
# Biological target: T1, IL-17A/A (Homo sapiens, UniProt Q16552)
# T1 construct: purchased Genscript Z03228
# T1 sequence (Q16552 24-155): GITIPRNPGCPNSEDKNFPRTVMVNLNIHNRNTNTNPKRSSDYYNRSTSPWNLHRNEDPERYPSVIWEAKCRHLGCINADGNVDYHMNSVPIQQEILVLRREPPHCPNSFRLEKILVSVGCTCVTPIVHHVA
# Test: IL-17A/A HEK-Blue Cell Assay
# Format: cell-based
# Conditions: IL-17A/A inhibition, HEK-Blue IL-17A reporter cell line, SEAP readout at A630, incubated for 20 hours
# Method: Example 3: IL-17A/A HEK-Blue Cell Assay
# The HEK-Blue IL-17A reporter cell line (Fisher #NC1408637) was used for cell-based IL-17A/A inhibition assays. Cells were grown and prepared for assays according to the manufacturer's instructions. This cell line consists of HEK 293 cells that were designed to expressed IL-17RA, IL-17RC, and the ActI adapter molecule, the combination of which, when stimulated by IL-17A/A activates a NFκB promoter and drives expression of a recombinant Secreted Alkaline Phosphatase (SEAP) gene protein. Media from the cells is then added to a development reagent (Quanti-Blue Substrate, Fisher #NC9711613), and read at A630.
# Compounds were titrated in DMSO, with a top final compound concentration of 10 μM, 1 uM, or 0.3 μM, and added to the cells immediately before adding IL-17A/A (Genscript #Z03228). The cells, compound, and IL-17A/A were then incubated for 20 hours before media was removed for SEAP analysis. The resulting inhibition curve was then analyzed using Graphpad Prism 7.0, and IC50 values were determined using a 4-parameter nonlinear fit. DMSO was added to a universal final concentration of 0.1% to optimize background.
row,Structure (SMILES),IC50
1,CCn1nccc1C(=O)N[C@H](c1nc2ccc(C(C)C3CCCNC3=O)cc2[nH]1)C(C1CC1)C1CC1 (stereo partly shown) [Compound 83],> 1000 nM
2,CCn1nccc1C(=O)N[C@H](c1nc2cc(C(C)C3CCNC3=O)ccc2[nH]1)C(C1CC1)C1CC1 (stereo partly shown) [Compound 22],> 1000 nM
3,"CCn1nccc1C(=O)N[C@H](c1nc2c(F)c(CC3CCC(C(F)(F)F)NC3=O)ccc2[nH]1)C(C1CC1)C1CC1 (single isomer, unassigned) [Compound 48]",> 1000 nM
4,CCn1nccc1C(=O)N[C@H](c1nc2ccc(C[C@H]3CCNC3=O)cc2[nH]1)[C@H](c1ccccc1Cl)C(C)C [Compound 62],> 1000 nM
5,CCn1nccc1C(=O)N[C@H](c1nc2c(F)c(CC3CC(C(F)(F)F)NC3=O)ccc2[nH]1)C(C1CC1)C1CC1 (stereo partly shown) [Compound 39],> 1000 nM
6,CCn1nccc1C(=O)N[C@@H](c1nc2nc(CC3CCNC3=O)ccc2[nH]1)C1CCC(F)(F)CC1 (stereo partly shown) [Compound 29],> 1000 nM
7,CCn1nccc1C(=O)N[C@H](c1nc2cc(C[C@@H]3CCNC3=O)cc(F)c2[nH]1)C1CCC(F)(F)CC1 [Compound 14],> 1000 nM
8,CCn1nccc1C(=O)N[C@H](c1nc2ccc(C(COC)C3C[C@@H](C(F)(F)F)NC3=O)cc2[nH]1)C(C1CC1)C1CC1 (stereo partly shown) [Compound 78],> 1000 nM
9,CCn1nccc1C(=O)N[C@@H](c1nc2nc(C[C@H]3CCNC3=O)ccc2[nH]1)C1CCC(F)(F)CC1 [Compound 28],> 1000 nM
10,CCn1nccc1C(=O)N[C@H](c1nc2ccc(C[C@@H]3CCCNC3=O)c(F)c2[nH]1)C(C1CC1)C1CC1 [Compound 36],> 1000 nM
11,CCn1nccc1C(=O)N[C@H](c1nc2ccc(C[C@H]3CCCNC3=O)cc2[nH]1)C1CCC(F)(F)CC1 [Compound 86],> 1000 nM
12,CCn1nccc1C(=O)N[C@H](c1nc2nc(CC3CCNC3=O)ccc2[nH]1)C1CCC(F)(F)CC1 (stereo partly shown) [Compound 30],> 1000 nM
13,CCn1nccc1C(=O)N[C@H](c1nc2cc(CC3CCNC3=O)cc(C#N)c2[nH]1)C1CCC(F)(F)CC1 (stereo partly shown) [Compound 57],100 to 1000 nM
14,CCn1nccc1C(=O)N[C@H](c1nc2ccc(CC3C(=O)NCC3C(F)(F)F)cc2[nH]1)C(C1CC1)C1CC1 (stereo partly shown) [Compound 77],100 to 1000 nM
15,CCn1nccc1C(=O)N[C@H](c1nc2c(F)c(CC3CCNC3=O)ccc2[nH]1)C1CCC(F)(F)CC1 (stereo partly shown) [Compound 11],100 to 1000 nM
16,O=C1N[C@H](C(F)(F)F)C[C@H]1Cc1ccc2nc([C@@H](NC(=O)C3(F)CC3)C(C3CC3)C3CC3)[nH]c2c1 [Compound 68],> 1000 nM
17,CCn1nccc1C(=O)N[C@H](c1nc2cc(CC3CCC(C(F)(F)F)NC3=O)ccc2[nH]1)C(C1CC1)C1CC1 (stereo partly shown) [Compound 45],100 to 1000 nM
18,CCn1nccc1C(=O)N[C@H](c1nc2cc(CC3CC(C(F)(F)F)NC3=O)cc(F)c2[nH]1)C(C1CC1)C1CC1 (stereo partly shown) [Compound 41],100 to 1000 nM
19,CCn1nccc1C(=O)N[C@H](c1nc2cc(C)c(CC3CCNC3=O)cc2[nH]1)C(C1CC1)C1CC1 (stereo partly shown) [Compound 26],> 1000 nM

row,Structure (SMILES),IC50
1,CCn1nccc1C(=O)N[C@H](c1nc2ccc(CC3CCC(C)NC3=O)cc2[nH]1)C(C1CC1)C1CC1 (stereo partly shown) [Compound 70],100 to 1000 nM
2,CCn1nccc1C(=O)N[C@H](c1nc2c(F)c(C[C@@H]3CCNC3=O)ccc2[nH]1)C1CCC(F)(F)CC1 [Compound 12],> 1000 nM
3,CCn1nccc1C(=O)N[C@H](c1nc2ccc(CC3(C)CCNC3=O)cc2[nH]1)C(C1CC1)C1CC1 (stereo partly shown) [Compound 20],100 to 1000 nM
4,CCn1nccc1C(=O)N[C@H](c1nc2ccc(CC3(C)CCNC3=O)cc2[nH]1)C(C1CC1)C1CC1 (stereo partly shown) [Compound 19],> 1000 nM
5,CCn1nccc1C(=O)N[C@H](c1nc2cc(CC3CCC(C(F)(F)F)NC3=O)cc(F)c2[nH]1)C(C1CC1)C1CC1 (stereo partly shown) [Compound 53],100 to 1000 nM
6,CCn1nccc1C(=O)N[C@H](c1nc2cc(C[C@H]3CCNC3=O)cc(F)c2[nH]1)C(C1CC1)C1CC1 [Compound 32],100 to 1000 nM
7,CCn1nccc1C(=O)N[C@H](c1nc2c(F)c(C[C@@H]3C[C@@H](C(F)(F)F)NC3=O)ccc2[nH]1)C(C1CC1)C1CC1 [Compound 37],100 to 1000 nM
8,CCn1nccc1C(=O)N[C@H](c1nc2cc(C(C)C3CCNC3=O)ccc2[nH]1)C(C1CC1)C1CC1 (stereo partly shown) [Compound 24],> 1000 nM
9,CCn1nccc1C(=O)N[C@H](c1nc2cc(CC3CC(C(F)(F)F)NC3=O)cc(F)c2[nH]1)C(C1CC1)C1CC1 (stereo partly shown) [Compound 42],> 1000 nM
10,CCn1nccc1C(=O)N[C@H](c1nc2cc(C[C@@H]3CCNC3=O)ccc2[nH]1)C(C1CC1)C1CC1 [Compound 27],> 1000 nM
11,CCn1nccc1C(=O)N[C@H](c1nc2cc(C[C@H]3CCNC3=O)cc(F)c2[nH]1)C1CCC(F)(F)CC1 [Compound 13],100 to 1000 nM
12,CCn1nccc1C(=O)N[C@H](c1nc2ccc(C[C@H]3CCNC3=O)cc2[nH]1)C(C1CCC1)C1CCC1 [Compound 64],100 to 1000 nM
13,CCn1nccc1C(=O)N[C@H](c1nc2cc(CC3CCC(C(F)(F)F)NC3=O)ccc2[nH]1)C(C1CC1)C1CC1 (stereo partly shown) [Compound 46],> 1000 nM
14,CCn1nccc1C(=O)NC(c1nc2nc(CC3CCNC3=O)ccc2[nH]1)C1CCC(F)(F)CC1 (mixture of isomers) [Compound 9],> 1000 nM
15,Cc1nonc1C(=O)N[C@H](c1nc2ccc(C[C@H]3CCNC3=O)cc2[nH]1)C1CCC(F)(F)CC1 [Compound 67],100 to 1000 nM
16,CCn1nccc1C(=O)N[C@H](c1nc2cc(C(C)C3CCNC3=O)ccc2[nH]1)C(C1CC1)C1CC1 (stereo partly shown) [Compound 23],> 1000 nM
17,CCn1nccc1C(=O)N[C@H](c1nc2ccc(CC3CC(F)(F)CNC3=O)cc2[nH]1)C(C1CC1)C1CC1 (stereo partly shown) [Compound 73],100 to 1000 nM
18,CCn1nccc1C(=O)N[C@H](c1nc2ccc(C[C@@H]3CCCNC3=O)cc2[nH]1)C(C1CC1)C1CC1 [Compound 18],> 1000 nM
19,CCn1nccc1C(=O)N[C@H](c1nc2cc(C[C@@H]3CCNC3=O)cc(F)c2[nH]1)C(C1CC1)C1CC1 [Compound 31],> 1000 nM

# Next, values leading:
row,IC50,Structure (SMILES)
1,< 100 nM,"CCn1nccc1C(=O)N[C@H](c1nc2cc(C[C@H]3C[C@@H](C(F)(F)F)NC3=O)ccc2[nH]1)C(C1CC1)C1CC1 (single isomer, unassigned) [Compound 3]"
2,100 to 1000 nM,CCn1nccc1C(=O)N[C@H](c1nc2ccc(CC3CCCNC3=O)cc2[nH]1)C(C1CC1)C1CC1 (stereo partly shown) [Compound 17]
3,100 to 1000 nM,CC[C@@H](C1CCC1)[C@H](NC(=O)c1ccnn1CC)c1nc2ccc(C[C@H]3CCNC3=O)cc2[nH]1 [Compound 65]
4,< 100 nM,"CCn1nccc1C(=O)N[C@H](c1nc2c(F)c(CC3CCC(C(F)(F)F)NC3=O)ccc2[nH]1)C(C1CC1)C1CC1 (single isomer, unassigned) [Compound 50]"
5,100 to 1000 nM,CCn1nccc1C(=O)N[C@H](c1nc2cc(CC3CC(C(F)(F)F)NC3=O)cc(F)c2[nH]1)C(C1CC1)C1CC1 (stereo partly shown) [Compound 33]
6,< 100 nM,CCn1nccc1C(=O)N[C@H](c1nc2cc(C[C@H]3C[C@@H](C(F)(F)F)NC3=O)cc(F)c2[nH]1)C(C1CC1)C1CC1 [Compound 34]
7,100 to 1000 nM,CCn1nccc1C(=O)N[C@H](c1nc2cc(C[C@H]3CCNC3=O)ccc2[nH]1)C(C1CC1)C1CC1 [Compound 16]
8,100 to 1000 nM,CCn1nccc1C(=O)N[C@H](c1nc2cc(C(C)C3CCNC3=O)ccc2[nH]1)C(C1CC1)C1CC1 (stereo partly shown) [Compound 21]
9,100 to 1000 nM,CCn1nccc1C(=O)N[C@H](c1nc2ccc(C[C@H]3CCCNC3=O)cc2[nH]1)C(C1CC1)C1CC1 [Compound 35]
10,100 to 1000 nM,CCn1nccc1C(=O)N[C@H](c1nc2ccc(CC3CC(C(F)(F)F)CNC3=O)cc2[nH]1)C(C1CC1)C1CC1 (stereo partly shown) [Compound 71]
11,100 to 1000 nM,CC(C)n1nccc1C(=O)N[C@H](c1nc2ccc(C[C@H]3CCNC3=O)cc2[nH]1)C(C1CC1)C1CC1 [Compound 58]
12,100 to 1000 nM,CCc1nonc1C(=O)N[C@H](c1nc2ccc(C[C@H]3CCNC3=O)cc2[nH]1)C1CCC(F)(F)CC1 [Compound 25]
13,< 100 nM,CCn1nccc1C(=O)N[C@H](c1nc2c(F)c(C[C@H]3C[C@@H](C(F)(F)F)NC3=O)ccc2[nH]1)C(C1CC1)C1CC1 [Compound 40]
14,100 to 1000 nM,Cn1nccc1C(=O)N[C@H](c1nc2ccc(C[C@H]3CCNC3=O)cc2[nH]1)C(C1CC1)C1CC1 [Compound 59]
15,100 to 1000 nM,"CCn1nccc1C(=O)N[C@H](c1nc2c(F)c(C[C@H]3CCNC3=O)ccc2[nH]1)C(C1CC1)C1CC1 (single isomer, unassigned) [Compound 1]"
16,100 to 1000 nM,CCn1nccc1C(=O)N[C@H](c1nc2ccc(C[C@H]3CCNC3=O)cc2[nH]1)[C@@H](C)[C@H]1CC[C@H](C)CC1 [Compound 66]
17,100 to 1000 nM,CCn1nccc1C(=O)N[C@H](c1nc2cc(CC3CCC(C(F)(F)F)NC3=O)cc(F)c2[nH]1)C(C1CC1)C1CC1 (stereo partly shown) [Compound 56]
18,< 100 nM,CCn1nccc1C(=O)N[C@H](c1nc2cc(C[C@H]3CCNC3=O)ccc2[nH]1)C1CCCCCC1 [Compound 6]
19,< 100 nM,CCn1nccc1C(=O)N[C@H](c1nc2ccc(C[C@H]3CCNC3=O)cc2[nH]1)[C@H]1CC[C@H](C)CC1 [Compound 61]
20,< 100 nM,CCn1nccc1C(=O)N[C@H](c1nc2ccc(C[C@H]3CC(F)(F)CNC3=O)cc2[nH]1)C(C1CC1)C1CC1 [Compound 74]
